Assay [1] deals with T1, human cannabinoid receptor type 1 (Homo sapiens, UniProt P21554).
T1 construct: purchased Perkin Elmer RBHCB1M; host or cells: HEK 293 EBNA cells
Description: Human CB1 Radioligand Binding Assay (basis of selectivity, CB2 vs. CB1). The following applies: CB1: HEK 293 EBNA cells expressing human CB1; CB2: CHO CB2 membranes. As for the experimental part: 2. Human CB1 Radioligand Binding Assay
The incubation buffer was composed of 50 mM Tris-HCl pH 7.4, 2.5 mM EDTA, 5 mM MgCl2, 5.0 mg/ml fatty acid free BSA and the wash buffer was composed of 50 mM Tris-HCl pH 7.4, 2.5 mM EDTA, 5 mM MgCl2, 0.5 mg/ml fatty acid free BSA.

Assay [2] concerns the target T2, human cannabinoid receptor type 2 (Homo sapiens, UniProt P34972).
T2 construct: expressed in transfected cells; membrane preparation
Description: Human CB2 Radioligand Binding Assay. Particulars: membranes from stably transfected CHO CB2 cells. Summed up: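 Filtration competition binding on membranes from CHO cells stably expressing human CB2, with [3H]CP-55,940 at its lot-specific Kd, in 50 mM Tris-HCl pH 7.4, EGTA, MgCl2, 5 mg/ml BSA, 1% DMSO; 90 min at 30° C. Compounds at 10 uM single point or dose-response; bound radioactivity by scintillation, 100 nM CP-55,940 as 100% efficacy.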

[3] abbreviates: competition with [3H] CP-55,940, read-out: CB2 Ligand Binding Asssay EC50.

What is called EC50 is the concentration that produces a half-maximal response.

Where two headings read alike, the source gives them in different places.

T2 sequence (P34972 whole entry): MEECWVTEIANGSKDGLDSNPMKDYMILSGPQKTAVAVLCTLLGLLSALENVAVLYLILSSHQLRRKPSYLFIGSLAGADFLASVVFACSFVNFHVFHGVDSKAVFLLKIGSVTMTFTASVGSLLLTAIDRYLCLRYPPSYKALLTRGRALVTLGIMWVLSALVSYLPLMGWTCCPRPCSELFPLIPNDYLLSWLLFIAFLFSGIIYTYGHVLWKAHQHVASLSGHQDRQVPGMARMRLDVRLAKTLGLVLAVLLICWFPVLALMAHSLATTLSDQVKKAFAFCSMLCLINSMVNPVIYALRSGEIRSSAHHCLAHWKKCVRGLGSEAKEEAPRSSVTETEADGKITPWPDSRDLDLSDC
T1 sequence (P21554 whole entry): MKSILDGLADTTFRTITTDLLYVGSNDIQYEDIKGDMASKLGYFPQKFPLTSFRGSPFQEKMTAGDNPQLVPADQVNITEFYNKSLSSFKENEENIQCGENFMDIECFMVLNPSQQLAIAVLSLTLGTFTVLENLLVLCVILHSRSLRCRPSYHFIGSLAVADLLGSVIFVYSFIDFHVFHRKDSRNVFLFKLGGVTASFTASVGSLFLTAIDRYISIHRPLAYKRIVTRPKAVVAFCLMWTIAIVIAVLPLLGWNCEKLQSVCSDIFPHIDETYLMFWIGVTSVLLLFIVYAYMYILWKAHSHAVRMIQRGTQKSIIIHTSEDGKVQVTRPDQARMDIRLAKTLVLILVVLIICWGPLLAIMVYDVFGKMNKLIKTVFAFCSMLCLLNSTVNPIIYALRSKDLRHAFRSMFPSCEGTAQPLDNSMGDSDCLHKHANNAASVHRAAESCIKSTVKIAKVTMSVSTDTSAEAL

As to `CCCOC(=O)N1CCN(c2nc(-c3ccccc3Cl)nc3ccccc23)CC1` [Example 94, Propyl 4-(2-(2-chlorophenyl)quinazolin-4-yl)piperazine-1-carboxylate], the “Selectivity, CB2 vs. CB1” value in assay [1] is listed as “− (− indicates ≦ 10−fold)”. The EC50 in assay [2] (setting [3]) is more than 1000 nM.
On to `CN(C)C(=O)C1CCN(c2nc(-c3ccccc3Cl)nc3ccccc23)CC1` [Example 102, 1-(2-(2-Chlorophenyl)quinazolin-4-yl)-N,N-dimethylpiperidine-4-carboxamide], for which the “Selectivity, CB2 vs. CB1” value in assay [1] is listed as “− (− indicates ≦ 10−fold)”. For the same molecule, the EC50 in assay [2] (setting [3]) was more than 1000 nM.
For the molecule `CC(=O)N1CCN(c2nc(-c3ccc(Cl)cc3)nc3ccccc23)CC1` [Example 199, 1-(4-(2-(4-Chlorophenyl)quinazolin-4-yl)piperazin-1-yl)ethanone], the “Selectivity, CB2 vs. CB1” value in assay [1] is given as “− (− indicates ≦ 10−fold)”. The EC50 in assay [2] (setting [3]) was more than 1000 nM.
For `CC(C)(C)c1ccc(-c2nc(N3CCOCC3)c3ccccc3n2)cc1` [Example 112, 4-(2-(4-tert-Butylphenyl)quinazolin-4-yl)morpholine] the same measures were “− (− indicates ≦ 10−fold)” and less than 1000 nM.
Consider `O=C(NCc1nc(N2CCCC2)c2ccccc2n1)c1ccc(Cl)cc1` [Example 12, 4-Chloro-N-((4-(pyrrolidin-1-yl)quinazolin-2-yl)methyl)benzamide], for which, in assay [1], the “Selectivity, CB2 vs. CB1” value was “− (− indicates ≦ 10−fold)”. The EC50 in assay [2] (setting [3]) was more than 1000 nM.
For `O=C1CCN(c2nc(-c3ccccc3Cl)nc3ccccc23)CC1` [Example 65, 1-(2-(2-Chlorophenyl)quinazolin-4-yl)piperidin-4-one], the “Selectivity, CB2 vs. CB1” value in assay [1] was “− (− indicates ≦ 10−fold)”. The EC50 in assay [2] (setting [3]) was less than 1000 nM.
As to `Cc1ccccc1-c1nc(N2CCOCC2)c2ccccc2n1` [Example 156, 4-Morpholin-4-yl-2-o-tolylquinazoline], the “Selectivity, CB2 vs. CB1” value in assay [1] is recorded as “− (− indicates ≦ 10−fold)”. Further, in assay [2] (setting [3]), the EC50 was more than 1000 nM.
For the molecule `Clc1ccc2c(N3CCCCC3)nc(C3CCCCC3)nc2c1` [Example 164, 7-Chloro-2-cyclohexyl-4-(piperidin-1-yl)quinazoline], the “Selectivity, CB2 vs. CB1” value in assay [1] is given as “+ (+ indicates > 10−fold)”. Moreover, the EC50 in assay [2] (setting [3]) is less than 1000 nM.
`Clc1ccccc1-c1nc(NCCCN2CCOCC2)c2ccccc2n1` [Example 192, 2-(2-Chlorophenyl)-N-(3-morpholinopropyl)quinazolin-4-amine]: the “Selectivity, CB2 vs. CB1” value in assay [1] is “− (− indicates ≦ 10−fold)”. Further, the EC50 in assay [2] (setting [3]) was more than 1000 nM.
For `Fc1ccc(-c2nc(N3CCOCC3)c3ccccc3n2)c(F)c1` [Example 25, 4-(2-(2,4-Difluorophenyl)quinazolin-4-yl)morpholine] the same measures were “− (− indicates ≦ 10−fold)” and more than 1000 nM.
Consider `CCCS(=O)(=O)N1CCN(c2nc(-c3ccccc3Cl)nc3cccc(Cl)c23)CC1` [Example 285, 5-Chloro-2-(2-chlorophenyl)-4-(4-(propylsulfonyl)piperazin-1-yl)quinazoline], for which the “Selectivity, CB2 vs. CB1” value in assay [1] was “− (− indicates ≦ 10−fold)”. Also, the EC50 in assay [2] (setting [3]) was more than 1000 nM.
Take `Clc1ccc(-c2nc(NCC3CC3)c3ccccc3n2)c(Cl)c1` [Example 30, Cyclopropylmethyl[2-(2,4-dichlorophenyl)quinazolin-4-yl]amine]: in assay [1], the “Selectivity, CB2 vs. CB1” value is reported as “+ (+ indicates > 10−fold)”. For the same molecule, the EC50 in assay [2] (CB2 Ligand Binding Asssay EC50, competition with [3H] CP-55,940) was more than 1000 nM.
For the molecule `COC(=O)c1ccc2nc(-c3ccccc3Cl)nc(N3CCN(C)CC3)c2c1` [Example 310, Methyl 2-(2-chlorophenyl)-4-(4-methylpiperazin-1-yl)quinazoline-6-carboxylate], the “Selectivity, CB2 vs. CB1” value in assay [1] is listed as “− (− indicates ≦ 10−fold)”. In addition, in assay [2] (setting [3]), the EC50 was less than 1000 nM.
With `Fc1ccc(-c2nc(N3CCCCC3)c3ccccc3n2)cc1F` [Example 15, 2-(3,4-difluorophenyl)-4-(piperidin-1-yl)quinazoline], the “Selectivity, CB2 vs. CB1” value in assay [1] was “− (− indicates ≦ 10−fold)”. The EC50 in assay [2] (setting [3]) was less than 1000 nM.
For the molecule `CCOc1ccc(Nc2nc(-c3ccccc3Cl)nc3ccccc23)cc1` [Example 332, 2-(2-Chlorophenyl)-N-(4-ethoxyphenyl)quinazolin-4-amine], in assay [1], the “Selectivity, CB2 vs. CB1” value was “− (− indicates ≦ 10−fold)”. Besides, in assay [2] (setting [3]), the EC50 was more than 1000 nM.
On to `CCOC(=O)N1CCN(c2nc(Cc3ccccc3C)nc3ccccc23)CC1` [Example 340, Ethyl 4-(2-(2-methylbenzyl)quinazolin-4-yl)piperazine-1-carboxylate], for which the “Selectivity, CB2 vs. CB1” value in assay [1] is given as “+ (+ indicates > 10−fold)”. Moreover, the EC50 in assay [2] (setting [3]) is more than 1000 nM.
For `CN1CCN(c2nc(C3CCCC3)nc3ccccc23)CC1` [Example 138, 2-Cyclopentyl-4-(4-methylpiperazin-1-yl)quinazoline] the same measures were “+ (+ indicates > 10−fold)” and less than 1000 nM.
As for `CCOC(=O)N1CCN(c2nc(C3CCCCC3)nc3ccc(OC)cc23)CC1` [Example 218, Ethyl 4-(2-cyclohexyl-6-methoxyquinazolin-4-yl)piperazine-1-carboxylate], the “Selectivity, CB2 vs. CB1” value in assay [1] is listed as “− (− indicates ≦ 10−fold)”. Further, in assay [2] (setting [3]), the EC50 was more than 1000 nM.
For `CC(C)(C)c1ccc(Nc2nc(-c3ccccc3Cl)nc3ccccc23)cc1` [Example 69, (4-tert-Butylphenyl)-[2-(2-chlorophenyl)quinazolin-4-yl]amine], the “Selectivity, CB2 vs. CB1” value in assay [1] is recorded as “− (− indicates ≦ 10−fold)”. For the same molecule, in assay [2] (setting [3]), the EC50 is more than 1000 nM.
On the same counts, the results for `CC(=O)N1CCN(c2nc(-c3ccccc3Cl)nc3ccccc23)CC1` [Example 99, 1-(4-(2-(2-Chlorophenyl)quinazolin-4-yl)piperazin-1-yl)ethanone] are “+ (+ indicates > 10−fold)” and less than 1000 nM.
For `CCOC(=O)N1CCN(c2nc(-c3ccccc3F)nc3ccccc23)CC1` [Example 279, Ethyl 4-(2-(2-fluorophenyl)quinazolin-4-yl)piperazine-1-carboxylate], in assay [1], the “Selectivity, CB2 vs. CB1” value is “+ (+ indicates > 10−fold)”. In assay [2] (setting [3]), the EC50 is less than 1000 nM.
Turning to `CCOC(=O)N1CCN(c2nc(-c3ccccc3Cl)nc3cc(C(=O)NC(C)C)ccc23)CC1` [Example 320, Ethyl 4-(2-(2-chlorophenyl)-7-(isopropylcarbamoyl)quinazolin-4-yl)piperazine-1-carboxylate], in assay [1], the “Selectivity, CB2 vs. CB1” value is given as “− (− indicates ≦ 10−fold)”. Further, the EC50 in assay [2] (setting [3]) was more than 1000 nM.
Take `CN1CCN(c2nc(-c3ccc(Cl)cc3)nc3ccc(OC(F)(F)F)cc23)CC1` [Example 225, 2-(4-Chlorophenyl)-4-(4-methylpiperazin-1-yl)-6-(trifluoromethoxy)quinazoline]: the “Selectivity, CB2 vs. CB1” value in assay [1] is recorded as “+ (+ indicates > 10−fold)”. Besides, the EC50 in assay [2] (setting [3]) is less than 1000 nM.
Regarding `Clc1nccc(N2CCN(c3nc(-c4ccccc4Cl)nc4ccccc34)CC2)n1` [Example 197, 2-(2-Chlorophenyl)-4-(4-(2-chloropyrimidin-4-yl)piperazin-1-yl)quinazoline], in assay [1], the “Selectivity, CB2 vs. CB1” value is on record as “+ (+ indicates > 10−fold)”. The EC50 in assay [2] (setting [3]) was less than 1000 nM.
As to `CN(c1nc(-c2ccc(C(C)(C)C)cc2)nc2ccccc12)C1CCCCC1` [Example 131, 2-(4-tert-Butylphenyl)quinazolin-4-yl cyclohexylmethylamine], in assay [1], the “Selectivity, CB2 vs. CB1” value was “− (− indicates ≦ 10−fold)”. Also, the EC50 in assay [2] (setting [3]) was less than 1000 nM.
For the molecule `Clc1ccccc1-c1nc(N2CCN(c3nccs3)CC2)c2ccccc2n1` [Example 264, 2-(4-(2-(2-Chlorophenyl)quinazolin-4-yl)piperazin-1-yl)thiazole], in assay [1], the “Selectivity, CB2 vs. CB1” value is given as “− (− indicates ≦ 10−fold)”. For the same molecule, the EC50 in assay [2] (setting [3]) was more than 1000 nM.
On the same counts, the results for `CC(C)CC(=O)N1CCN(c2nc(-c3ccccc3Cl)nc3cccc(Cl)c23)CC1` [Example 283, 1-(4-(5-Chloro-2-(2-chlorophenyl)quinazolin-4-yl)piperazin-1-yl)-3-methylbutan-1-one] are “− (− indicates ≦ 10−fold)” and more than 1000 nM.
Regarding `CCOC(=O)N1CCN(c2nc(-c3ccccc3Cl)nc3ccc(OC)cc23)CC1` [Example 217, Ethyl 4-(2-(2-chlorophenyl)-6-methoxyquinazolin-4-yl)piperazine-1-carboxylate], the “Selectivity, CB2 vs. CB1” value in assay [1] is “+ (+ indicates > 10−fold)”. The EC50 in assay [2] (setting [3]) is less than 1000 nM.
Regarding `CCC(=O)N1CCN(c2nc(-c3ccccc3Cl)nc3ccccc23)CC1` [Example 98, 1-(4-(2-(2-Chlorophenyl)quinazolin-4-yl)piperazin-1-yl)propan-1-one], the “Selectivity, CB2 vs. CB1” value in assay [1] is given as “+ (+ indicates > 10−fold)”. Moreover, in assay [2] (setting [3]), the EC50 was less than 1000 nM.
Turning to `CC(=O)N1CCN(c2nc(-c3ccccc3F)nc3cccc(Cl)c23)CC1` [Example 237, 1-(4-(5-Chloro-2-(2-fluorophenyl)quinazolin-4-yl)piperazin-1-yl)ethanone], the “Selectivity, CB2 vs. CB1” value in assay [1] is listed as “+ (+ indicates > 10−fold)”. In assay [2] (setting [3]), the 50% effective concentration (EC50) was less than 1000 nM.
On to `CC(C)(C)c1ccc(Nc2nc(-c3ccc(F)c(F)c3)nc3ccccc23)cc1` [Example 20, N-(4-tert-Butylphenyl)-2-(3,4-difluorophenyl)quinazolin-4-amine], for which the “Selectivity, CB2 vs. CB1” value in assay [1] is “+ (+ indicates > 10−fold)”. In addition, the EC50 in assay [2] (setting [3]) is less than 1000 nM.
